Results reported in patent US20220119355A1, “SATURATED-RING-FUSED DIHYDROPYRIMIDINONE OR DIHYDROTRIAZINONE COMPOUNDS AND PHARMACEUTICAL USE THEREOF” (Japan Tobacco Inc., priority 2018, published 2022).

Legend:
mouse RORγ = target: T1, mouse RORγ (Mus musculus, UniProt P51450); assay: In-vitro reporter gene assay for inhibitory activity against RORγ transcription, Test Method A (GAL4-mRORγ LBD / pG5-Luc in CHO cells); type: cell-based; conditions: luciferase reporter, 2 days
T1 construct: from Ile251 to Lys516 for mouse RORγ; expressed in transfected cells; host or cells: CHO cells (transient co-transfection with pG5-Luc)
T1 sequence (P51450 251-516): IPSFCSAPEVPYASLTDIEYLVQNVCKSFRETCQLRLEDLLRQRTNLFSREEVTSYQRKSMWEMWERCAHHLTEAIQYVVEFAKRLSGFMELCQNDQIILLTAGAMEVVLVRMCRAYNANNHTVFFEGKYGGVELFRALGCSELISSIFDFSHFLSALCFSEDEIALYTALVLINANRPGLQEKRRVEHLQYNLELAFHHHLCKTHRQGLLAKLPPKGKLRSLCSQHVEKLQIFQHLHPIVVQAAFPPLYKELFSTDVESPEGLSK
Protocol: (§1) In-Vitro Assay for Inhibitory Activity Against RORγ Transcription
(§2) Inhibitory activity against RORγ transcription was assessed for test compounds by either of the following Test Method A or B of reporter gene assay.
(§3) cDNAs encoding human and mouse RORγ ligand binding domains (LBD) were obtained based on the sequences of human RORγ (Genbank registered number NM_005060.3) and mouse RORγ (Genbank registered number NM_011281.2) (LBD sequences: from Ser253 to Lys518 for human RORγ; from Ile251 to Lys516 for mouse RORγ).
(§4) LBD cDNAs of human and mouse RORγ were inserted into pFA-CMV vector (Stratagene), which expresses GAL4-DNA binding domain fusion protein. The resulting plasmids are hereinafter referred to as GAL4-hRORγ plasmid and GAL4-mRORγ plasmid, respectively.
(§5) GAL4-hRORγ plasmid or GAL4-mRORγ plasmid was transiently co-transfected into Chinese hamster ovary cells (CHO cells) with pG5-Luc (Promega), reporter plasmid expressing firefly luciferase in a GAL4-dependent manner.
(§6) TransIT (Registered trademark) CHO Transfection Kit (Mirus) was used to co-transfect CHO cells with the plasmids. One day prior to the assay, CHO cells were suspended in HAM F-12 Nutrient medium containing 10% (v/v) fetal bovine serum and seeded at 6×10^6 cells per 175 cm^2 cell culture flask each. 54 μL of TransIT (Registered trademark) CHO reagent was added into a 15 mL tube containing 1.16 mL of HAM F-12 Nutrient medium without fetal bovine serum, and then mixed and incubated at room temperature for 10 minutes. 36 μL of a plasmid solution containing 400 ng of GAL4-hRORγ plasmid, 9000 ng of pG5-Luc plasmid, and 8600 ng of pcDNA3 plasmid were added into the tube and mixed gently. In the case of mouse assay, a plasmid solution containing 250 ng of GAL4-mRORγ plasmid, 9000 ng of pG5-Luc plasmid, and 8750 ng of pcDNA3 plasmid was added, instead. The mixture was incubated at room temperature for 10 minutes. 9 μL each of CHO Mojo Reagent were then added into each tube and mixed gently. The mixture was incubated at room temperature for 10 minutes. The resulting transfection reagent was applied to the cell culture. After incubation at 37° C., 5% CO2 for 4 hours, the plasmid-transfected CHO cells were harvested by trypsin treatment. The collected cells were resuspended in culture medium and plated into a 384-well-white plate at 8,000 cells/50 μL/well. The plate was let stand at room temperature for 1 hour and then further incubated at 37° C., 5% CO2 for 3 hours. A test compound was dissolved in DMSO to obtain a concentration of 10 mM. Each solution was serially diluted with DMSO and further diluted with culture medium just before use. The test compound solutions were added. to the cells in the plate at 8 different concentrations. The final concentration of DMSO was 0.2% (v/v). After the addition of test compound, the cells were incubated at […], 5% CO2 for 2 days.
(§7) RORγ transcriptional activity was detected as the intracellular luciferase activity using SteadyLite HTS Reporter Gene Assay System (Perkin Elmer). SteadyLite Reagent was diluted five-fold with Extension buffer (10 mM Tricine, 0.2% (w/v) bovine serum albumin, 0.02% (v/v) Tween-20) to obtain a luciferase substrate solution. After the measurement of the cell viability with Resazurin, the medium was removed in the plate and the luciferase substrate solution was added thereto. After the incubation at room temperature for 10 minutes, luminescence of each well was measured with a microplate reader. The luciferase activity derived from the luminescence count in a vehicle-control well treated with 0.2% DMSO alone was defined as 100%, and the luciferase activity after treatment with the test compound was calculated as a percentage, %-of-control, based on the value of the vehicle-control. An EC50 value of the test compound was calculated by curve fitting with GraphPad Prism. The luminescence counts at the concentration of test compound where cytotoxicity was observed were excluded from data analysis. […]

human RORγ = target: T2, human RORγ (Homo sapiens, UniProt P51449); assay: In-vitro reporter gene assay for inhibitory activity against RORγ transcription, Test Method A (GAL4-hRORγ LBD / pG5-Luc in CHO cells); type: cell-based; conditions: luciferase reporter, 2 days
T2 construct: from Ser253 to Lys518 for human RORγ; expressed in transfected cells; host or cells: CHO cells (transient co-transfection with pG5-Luc)
T2 sequence (P51449 253-518): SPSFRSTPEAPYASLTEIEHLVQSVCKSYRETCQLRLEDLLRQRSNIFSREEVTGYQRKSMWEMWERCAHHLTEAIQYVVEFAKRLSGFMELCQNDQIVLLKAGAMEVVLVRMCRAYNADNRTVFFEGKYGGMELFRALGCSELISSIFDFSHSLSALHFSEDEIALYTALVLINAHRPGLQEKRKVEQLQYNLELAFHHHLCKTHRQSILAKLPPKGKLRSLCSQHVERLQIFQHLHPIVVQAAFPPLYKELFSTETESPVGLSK
Protocol: as §1, §2, §3, §4, §5, §6, §7

| Compound | EC50 (mouse RORγ) | EC50 (human RORγ) |
| --- | --- | --- |
| CC(C)(C)CCc1ccc(C23COC(C)(C)C2=CN(CCC(=O)O)C(=O)N3)cc1Cl (single isomer, unassigned) [Example 6] | 0.714 µM | 0.554 µM |
| CC(C)(C)CCc1ccc([C@]23CCC(C)(C)C2=CN(c2ccc(C(=O)O)cc2)C(=O)N3)cc1Cl (single isomer, unassigned) [Example 9] | 1.47 µM | 0.819 µM |
| C[C@@H]1CCC2(c3ccc(CCC(C)(C)C)c(Cl)c3)NC(=O)N(CCC(=O)O)C=C12 (single isomer, unassigned) [Example 12] | 3.43 µM | 2.58 µM |
| CC(C)(C)CCc1ccc([C@]23COC(COCc4ccccc4)C2=CN(CCC(=O)O)C(=O)N3)cc1Cl (single isomer, unassigned) [Example 15] | > 8 µM | > 8 µM |
| CC(C)(C)CCc1ccc([C@@]23COC(COCc4ccccc4)C2=CN(CCC(=O)O)C(=O)N3)cc1Cl (single isomer, unassigned) [Example 16] | 0.774 µM | 0.755 µM |
| CC(C)(C)CCc1ccc([C@]23COC(CO)C2=CN(CCC(=O)O)C(=O)N3)cc1Cl (single isomer, unassigned) [Example 17] | > 20 µM | > 20 µM |
| CC(C)(C)CCc1ccc([C@@]23COC(CO)C2=CN(CCC(=O)O)C(=O)N3)cc1Cl (single isomer, unassigned) [Example 18] | 0.452 µM | 0.773 µM |
| COCC1OC[C@]2(c3ccc(CCC(C)(C)C)c(Cl)c3)NC(=O)N(CCC(=O)O)C=C12 (single isomer, unassigned) [Example 19] | 15.6 µM | 17.1 µM |
| CC(C)(C)CCc1ccc(C23COC(COC(C)(C)C)C2=CN(CCC(=O)O)C(=O)N3)cc1Cl (single isomer, unassigned) [Example 21] | 1.27 µM | 2.26 µM |
| CC(C)(C)CCc1ccc(C23COC(COC(C)(C)C)C2=CN(CCC(=O)O)C(=O)N3)cc1Cl (single isomer, unassigned) [Example 22] | > 8 µM | 16.2 µM |
| CN(C)CCC1CCC2(c3ccc(CCC(C)(C)C)c(Cl)c3)NC(=O)N(CCC(=O)O)C=C12 (single isomer, unassigned) [Example 28] | > 20 µM | > 20 µM |
| CC(C)(C)CCc1ccc(C23CC(C)(C)CC2=CN(CCC(=O)O)C(=O)N3)cc1Cl (single isomer, unassigned) [Example 33] | > 3.2 µM | 2.96 µM |
| CC(C)(C)CCc1ccc([C@]23CCCC(C)(C)C2=CN(CCC(=O)O)C(=O)N3)cc1Cl (single isomer, unassigned) [Example 37] | 5.51 µM | 3.87 µM |
| CC(C)(C)CCc1ccc([C@]23CCCCC2=CN(CCC(=O)O)C(=O)N3)cc1Cl (single isomer, unassigned) [Example 40] | 5.33 µM | 4.64 µM |
| COC1CC[C@]2(c3ccc(CCC(C)(C)C)c(Cl)c3)NC(=O)N(CCC(=O)O)C=C2C1 (single isomer, unassigned) [Example 67] | 8.34 µM | 4.72 µM |

Stronger by EC50 (mouse RORγ), values ahead:

| EC50 (mouse RORγ) | EC50 (human RORγ) | Compound |
| --- | --- | --- |
| 0.381 µM | 0.427 µM | CC(C)(C)CCc1ccc(C23COC(C)(C)C2=CN(c2ccc(C(=O)O)cc2)C(=O)N3)cc1Cl (single isomer, unassigned) [Example 8] |
| 0.243 µM | 0.351 µM | CC(C)(C)CCc1ccc(C23CCC(CCOCc4ccccc4)C2=CN(CCC(=O)O)C(=O)N3)cc1Cl (single isomer, unassigned) [Example 26] |
| 0.105 µM | 0.092 µM | CC(C)(C)CCc1ccc(C23CCC(CCO)C2=CN(CCC(=O)O)C(=O)N3)cc1Cl (single isomer, unassigned) [Example 25] |
| 0.103 µM | 0.173 µM | CC(C)(C)CCc1ccc(C23CCC(CO)C2=CN(CCC(=O)O)C(=O)N3)cc1Cl (single isomer, unassigned) [Example 29] |
| 0.039 µM | 0.027 µM | COCCC1CCC2(c3ccc(CCC(C)(C)C)c(Cl)c3)NC(=O)N(CCC(=O)O)C=C12 (single isomer, unassigned) [Example 27, 3-{7a-[3-Chloro-4-(3,3-dimethyl-butyl)phenyl]-5-(2-methoxy-ethyl)-2-oxo-1,2,5,6,7,7a-hexahydro-cyclopentapyrimidin-3-yl}propionate] |
| 0.03 µM | 0.016 µM | CC(C)(C)CCc1ccc(C23CCC(C)(C)C2=CN(c2ccc(C(=O)O)cc2)C(=O)N3)cc1Cl (single isomer, unassigned) [Example 10, 4-{7a-[3-Chloro-4-(3,3-dimethyl-butyl)phenyl]-5,5-dimethyl-2-oxo-1,2,5,6,7,7a-hexahydro-cyclopentapyrimidin-3-yl}benzoic acid] |
| 0.03 µM | 0.024 µM | CC1CCC2(c3ccc(CCC(C)(C)C)c(Cl)c3)NC(=O)N(CCC(=O)O)C=C2C1 (single isomer, unassigned) [Example 66] |
| 0.025 µM | 0.025 µM | COCC1OC[C@@]2(c3ccc(CCC(C)(C)C)c(Cl)c3)NC(=O)N(CCC(=O)O)C=C12 (single isomer, unassigned) [Example 20] |
| 0.022 µM | 0.021 µM | C[C@@H]1CCC2(c3ccc(CCC(C)(C)C)c(Cl)c3)NC(=O)N(CCC(=O)O)C=C12 (single isomer, unassigned) [Example 11] |
| 0.021 µM | 0.011 µM | CC(C)(C)CCc1ccc([C@@]23CCCC(C)(C)C2=CN(CCC(=O)O)C(=O)N3)cc1Cl (single isomer, unassigned) [Example 38] |
| 0.018 µM | 0.021 µM | CC(C)(C)CCc1ccc(C23CC(C)(C)CC2=CN(CCC(=O)O)C(=O)N3)cc1Cl (single isomer, unassigned) [Example 32] |
| 0.016 µM | 0.015 µM | COC1CC[C@@]2(c3ccc(CCC(C)(C)C)c(Cl)c3)NC(=O)N(CCC(=O)O)C=C2C1 (single isomer, unassigned) [Example 68] |
| 0.013 µM | 0.017 µM | CC(C)(C)CCc1ccc([C@@]23CCCCC2=CN(CCC(=O)O)C(=O)N3)cc1Cl (single isomer, unassigned) [Example 41] |
| 0.011 µM | 0.009 µM | CC(C)(C)CCc1ccc(C23COC(C)(C)C2=CN(c2ccc(C(=O)O)cc2)C(=O)N3)cc1Cl (single isomer, unassigned) [Example 7] |
| 0.009 µM | 0.007 µM | CC(C)(C)CCc1ccc(C23COC(C)(C)C2=CN(CCC(=O)O)C(=O)N3)cc1Cl (single isomer, unassigned) [Example 5] |
